Data taken from the NIST ThermoML archive (doi:10.1021/je400980w).
± gives the expanded uncertainty stated by the source.

Details: Liquid

Row | vapor or sublimation pressure (420.74 K) [kPa] | vapor or sublimation pressure (432.29 K) [kPa] | vapor or sublimation pressure (440.15 K) [kPa] | vapor or sublimation pressure (420.46 K) [kPa] | vapor or sublimation pressure (431.49 K) [kPa] | vapor or sublimation pressure (439.8 K) [kPa] | Structure (SMILES)
1 | 20 ± 2 | 30 ± 2 | 40 ± 2 | – | – | – | OCCO [1,2-ethanediol]
2 | – | – | – | 20 ± 2 | 30 ± 2 | 40 ± 2 | CCC(O)CO (stereo unspecified) [1,2-butanediol]
